Results: paper PMC12040169 (PLOS Biology, 2025)

Experiment: in vitro
Details: human, hela cells, % viability

| SMILES | viability at 28.5 h, 10 µM [%] |
| --- | --- |
| Cc1ccc(-n2c(SCC(=O)Nc3sc4c(c3C#N)CCCC4)nnc2-c2ccccc2O)c(C)c1 [CBK268692] | 77.9 |
| CC1CC(C)CN(CCCNS(=O)(=O)c2ccc3c(c2)oc(=O)n3C)C1 (stereo not shown) [CBK268695] | 104 |
| O=C(CSc1cccc2ccccc12)Nc1ccc([N+](=O)[O-])cc1O [CBK268696] | 115 |
| Cc1nn(C(C)C(=O)Nc2cc(C(F)(F)F)ccc2Cl)c(C)c1[N+](=O)[O-] (stereo not shown) [CBK268697] | 88.5 |
| O=C(CSc1nnc(-c2ccc(Cl)cc2Cl)o1)c1cc2ccccc2oc1=O [CBK268698] | 88.7 |
| O=C(O)c1ccccc1-c1ccc(-c2cc(C(=O)O)c3cc(Cl)ccc3n2)o1 [CBK268699] | 91.1 |
| Cc1cc(C(=O)Nc2cc(-c3nc4ncccc4o3)ccc2Cl)ccc1[N+](=O)[O-] [CBK268700] | 95.1 |
| Cc1cc(N2C(=O)CC(N3CCN(c4ccc(C(=O)c5cccs5)cc4)CC3)C2=O)no1 (stereo not shown) [CBK268701] | 84.4 |
| COC(=O)c1ccc(Cl)c(NC(=O)CSc2nnc(-c3ccncc3)[nH]2)c1 [CBK268702] | 105 |
| O=C(NCCCN1CCOCC1)c1ccc2nccnc2c1 [CBK268704] | 114 |
| O=C(Nc1cccc2ccccc12)C1CCC(C(=O)Nc2cccc3ccccc23)CC1 (stereo not shown) [CBK268706] | 81.9 |
| Cc1c(Nc2cnn(C34CC5CC(CC(CC(=O)O)(C5)C3)C4)c(=O)c2Cl)c(=O)n(-c2ccccc2)n1C [CBK268707] | 89 |
| O=C(CN(c1cc(Cl)ccc1Cl)S(=O)(=O)c1ccccc1)Nc1cccnc1 [CBK268708] | 59.3 |
| O=S(=O)(/N=C(/Nc1nccs1)c1ccccc1)c1cccs1 [CBK268709] | 83.8 |
| CSc1ncc(Cl)c(C(=O)Nc2sc3c(c2C(=O)NCc2cccnc2)CCC3)n1 [CBK268710] | 95.9 |
| Cc1cc(C)c(NC(=O)CSc2nc(C)c(Cc3ccccc3)c(O)n2)c([N+](=O)[O-])c1 [CBK268715] | 86.8 |
| NC(=O)c1ccccc1NC(=O)C1CCC(C(=O)Nc2ccccc2C(N)=O)CC1 (stereo not shown) [CBK268716] | 87.1 |
| Cc1ccccc1CNCCNCC(C)O (stereo not shown) [CBK268718C] | 95.9 |
| Cc1ccc(C(C)C)c(OCC(=O)NS(=O)(=O)c2ccc(Br)cc2)c1 [CBK268719] | 101 |
| CCOc1cc(C)c(C(C)C)cc1S(=O)(=O)NCCN1CCOCC1 [CBK268727] | 110 |
| O=C(O)CC(NC(=O)C(c1ccccc1)c1ccccc1)c1ccco1 (stereo not shown) [CBK268729] | 109 |

| SMILES | viability at 28.5 h, 10 µM [%] |
| --- | --- |
| Cc1cc(-c2nnc(SCC(=O)N3CCCCC3)o2)no1 [CBK268731] | 86.6 |
| CCOc1ccc2ccccc2c1CNCCc1ccc(S(N)(=O)=O)cc1 [CBK268732C] | 88.7 |
| O=C1CC(N2CCC(c3nc4ccccc4o3)CC2)C(=O)N1Cc1cccs1 (stereo not shown) [CBK268735] | 104 |
| COc1cc(OC)cc(-c2nnc(SCc3cccc(C(=O)O)c3)[nH]2)c1 [CBK268736] | 108 |
| O=C(Nc1ccc(NC(=O)c2ccco2)cc1)c1ccc(N2CCOCC2)c([N+](=O)[O-])c1 [CBK268739] | 95.2 |
| COc1c(Cl)cc(Cl)cc1C(=O)NC(=S)Nc1sc2c(c1C#N)CCCC2 [CBK268741] | 84.4 |
| OCC(CO)(CO)NCc1ccc(-c2ccccc2)cc1 [CBK268742C] | 93.2 |
| Cc1ccc(-n2c(SCC(=O)Nc3ccccc3C#N)nnc2-c2cc(Br)ccc2O)c(C)c1 [CBK268743] | 94.1 |
| N#C/C(=C/c1ccccc1OCc1cccc([N+](=O)[O-])c1)c1ccc(C(=O)O)cc1 [CBK268748] | 96.2 |
| Cn1c2ccccc2c2nnc(SCCCC(=O)c3ccc4c(c3)OCCO4)nc21 [CBK268750] | 97.5 |
| O=C(Cn1ncc2ccccc2c1=O)NNC(=S)Nc1ccc2c(c1)OCO2 [CBK268751] | 100 |
| O=C1CC(C(=O)Nc2ccccc2)NC(Nc2cc(Cl)cc(Cl)c2)=N1 (stereo not shown) [CBK268752] | 106 |
| CSc1nsc(SCC(=O)c2ccc(NC(C)=O)cc2)n1 [CBK268755] | 82.3 |
| O=C(NC(=S)Nc1cccc(-c2nc3ncccc3o2)c1)c1cc([N+](=O)[O-])ccc1N1CCOCC1 [CBK268756] | 92.7 |
| Cc1ccc(OC(C)C(=O)Nc2ccc(S(=O)(=O)Nc3cc(C)on3)cc2)cc1 (stereo not shown) [CBK268757] | 89.6 |
| CSc1nc(NN2C(=O)c3ccccc3C2=O)c2c3c(sc2n1)COC(C)(C)C3 [CBK268758] | 85.6 |
| CCCSc1nnc(NC(=O)c2nc(SC)ncc2Cl)s1 [CBK268759] | 95.2 |
| CC(C)(Oc1ccc(Cl)cc1)C(=O)O/N=C(\N)c1ccc(I)cc1 [CBK268760] | 97.2 |
| CS(=O)(=O)Nc1cccc(C2=NN(S(=O)(=O)c3ccc(Cl)cc3)C(c3ccccc3F)C2)c1 (stereo not shown) [CBK268762] | 114 |
| CCOc1cc(S(=O)(=O)NCCCN2CCOCC2)c(C)cc1C [CBK268764] | 99 |
| CSCCC(NS(=O)(=O)c1ccc(I)cc1)C(=O)O (stereo not shown) [CBK268768] | 98.6 |

| SMILES | viability at 28.5 h, 10 µM [%] |
| --- | --- |
| Cc1cc(C)cc(N(C(C)C(=O)Nc2ccccc2-c2ccccc2)S(C)(=O)=O)c1 (stereo not shown) [CBK268770] | 101 |
| COC(=O)c1ccc(COc2nc3ccccc3nc2/C=C/c2cccc([N+](=O)[O-])c2)cc1 [CBK268776] | 112 |
| COc1ccc(COc2nc3c(c(=O)n(C)c(=O)n3C)n2Cc2ccc(Cl)c(Cl)c2)cc1 [CBK268779] | 91.3 |
| COc1ccc(N2CC(C(=O)Nc3ccc(C(=O)O)cc3)CC2=O)cc1 (stereo not shown) [CBK268782] | 88 |
| CC(C)(C)C(=O)Nc1ccc(S(=O)(=O)NC2CCCCC2)cc1 [CBK268783] | 118 |
| Cc1ccc(NS(=O)(=O)c2cc(C(=O)Nc3ccc(S(=O)(=O)N4CCCC4)cc3)ccc2C)cc1 [CBK268784] | 89.8 |
| O=C(NC(=S)Nc1cccc(-c2nc3ccccc3s2)c1)c1cc([N+](=O)[O-])ccc1N1CCOCC1 [CBK268789] | 103 |
| Cc1onc(-c2ccccc2Cl)c1C(=O)N(Cc1nc(-c2ccccc2)no1)C1CCCCC1 [CBK268790] | 108 |
| Cc1ccc(-n2c(SCC(=O)N3CCc4ccccc43)nnc2-c2ccccc2O)c(C)c1 [CBK268793] | 108 |
| COc1ccccc1-c1noc(CCCC(=O)Nc2cccc(C(F)(F)F)c2)n1 [CBK268794] | 96.3 |
| COc1ccc(CCNC(=O)c2nc3ncccn3n2)cc1OC [CBK268795] | 90.4 |
| COC(=O)c1ccccc1NC(=O)C1CCCN(S(=O)(=O)c2cc(Cl)ccc2Cl)C1 (stereo not shown) [CBK268797] | 101 |
| OCCN1CCN(c2nc3ccccc3nc2-c2ccccc2)CC1 [CBK268799C] | 111 |
| O=C(CN1CCCC1)Nc1sc2c(c1C(=O)Nc1ccccc1)CCCC2 [CBK268800] | 103 |
| CC(=O)Nc1ccc(S(=O)(=O)N2CCN(c3ccc([N+](=O)[O-])c(NC4C5CC6CC(C5)CC4C6)c3)CC2)cc1 (stereo not shown) [CBK268802] | 90.5 |
| CCN(CC)CCn1c(=N)n(Cc2ccc(C(C)(C)C)cc2)c2ccccc21 [CBK268803B] | 82.9 |
| CN(C)c1nc(NCc2ccccc2)nc(SCC(=O)Nc2ccccc2)n1 [CBK268810] | 88.9 |
| O=C(COc1ccccc1[N+](=O)[O-])Nc1ccc(Cl)c(-c2nc3ncccc3o2)c1 [CBK268811] | 88.8 |
| Cc1nc(SCCC(=O)Nc2ccccc2C#N)nc2cc3c(cc12)CCC3 [CBK268812] | 90.2 |
| NS(=O)(=O)c1ccc(NC(=S)NC(=O)c2cccc3c(Cl)cccc23)cc1 [CBK268814] | 99.5 |
| O=C(O)CCNS(=O)(=O)c1ccc(Cl)c(Cl)c1 [CBK268815] | 112 |

| SMILES | viability at 28.5 h, 10 µM [%] |
| --- | --- |
| Cc1cccc(-c2noc(CN(C(=O)c3ccc4c(c3)OCO4)C(C)C)n2)c1 [CBK268817] | 98.1 |
| O=C(O)CCN1CCN(S(=O)(=O)c2cccc([N+](=O)[O-])c2)CC1 [CBK268819] | 89.7 |
| O=C(CSc1nnc(CN2CCOCC2)n1-c1ccc(Cl)cc1)N1c2ccccc2SC2C=CC=CC21 (stereo not shown) [CBK268820] | 91.3 |
| CCCSc1ncc(Cl)c(C(=O)Nc2ccc(C(=O)OC)cc2)n1 [CBK268824] | 102 |
| CS(=O)(=O)N(CC(=O)Nc1ccccc1C(=O)N1CCCC1)c1cc(Cl)c(Cl)cc1Cl [CBK268826] | 106 |
| CCN(CC(=O)N1CCN(c2cc(Cl)ccc2C)CC1)S(=O)(=O)c1ccc2ccccc2c1 [CBK268827] | 92.8 |
| Cc1c(NC(=O)CSc2ccc(Cl)cc2)cccc1-c1nc2ncccc2o1 [CBK268829] | 109 |
| Cc1cc(O)c(-c2n[nH]c3c2C(c2ccccc2F)N(Cc2cccnc2)C3=O)cc1C (stereo not shown) [CBK268831] | 89.8 |
| CSc1nsc(SCC(=O)c2cc3ccccc3oc2=O)n1 [CBK268833] | 105 |
| Cc1cc(C)cc(N(C(C)C(=O)Nc2ccc(C(F)(F)F)cc2)S(C)(=O)=O)c1 (stereo not shown) [CBK268834] | 89.6 |
| O=C(CN1CCN(c2ccccn2)CC1)N1c2ccccc2Sc2ccc(C(F)(F)F)cc21 [CBK268835G] | 98.8 |
| O=C(CSc1nnc(-c2ccc(Cl)cc2Cl)o1)c1ccc2c(c1)OCCO2 [CBK268839] | 113 |
| O=S(=O)(N1CCOCC1)N1CCN(CC(O)COc2ccc3cc(Br)ccc3c2)CC1 (stereo not shown) [CBK268840] | 103 |
| O=C(O)CC(NC(=O)c1ccccc1)c1ccco1 (stereo not shown) [CBK268843] | 87.4 |
| Cc1nnc2sc(-c3ccccc3NC(=S)NC(=O)c3cc4ccccc4o3)nn12 [CBK268845] | 103 |
| COc1ccc(C2c3c(-c4cc(C)c(C)cc4O)n[nH]c3C(=O)N2Cc2cccnc2)cc1OC (stereo not shown) [CBK268846] | 106 |
| COc1ccccc1-c1noc(CCCC(=O)Nc2cccnc2)n1 [CBK268848] | 101 |
| C=CCn1c(S)nnc1CCSCc1ccccc1 [CBK268849] | 95.1 |
| CC(O)c1cc2c(cc1NC(=O)c1cnn3c1NC(c1ccco1)CC3C(F)(F)F)OCO2 (stereo not shown) [CBK268850] | 83.3 |
